Earlier results on two compounds are cited in US7737327B2, “Methods for screening for genes and small molecules that activate mammalian receptor proteins” (The University of Kentucky Research Foundation, priority 2004, dated 2010).

Series [1] deals with mouse mammary tumor virus promoter. The conditions noted are these: only when low level of inducer (200 nm dexamethasone) present simultaneously.
The conditions of series [2]: mice on a high-cholesterol diet.

In the case of (−)-epigallocatechin-3-O-gallate, the “effect on activity of mouse mammary tumor virus promoter” value in series [1] is “enhance the activity”.

On to `C/C=C1\C(=O)C[C@H]2[C@@H]3CCC4=CC(=O)CC[C@]4(C)[C@H]3CC[C@]12C` [guggelsterone], for which the “effect on hepatic cholesterol” value in series [2] is “decrease hepatic cholesterol”.
